Measured values from US20250034132A1, “PROLYL HYDROXYLASE DOMAIN-CONTAINING PROTEIN (PHD) INHIBITORS AND USES THEREOF” (Insilico Medicine IP Limited, priority 2021, published 2025).

Target: PHD2 (Homo sapiens, UniProt Q9GZT9)
Test: PHD2 enzymatic assay (AlphaScreen)
Type: biochemical
Settings: IC50 from % inhibition

Chain of PHD2 (Q9GZT9 whole entry): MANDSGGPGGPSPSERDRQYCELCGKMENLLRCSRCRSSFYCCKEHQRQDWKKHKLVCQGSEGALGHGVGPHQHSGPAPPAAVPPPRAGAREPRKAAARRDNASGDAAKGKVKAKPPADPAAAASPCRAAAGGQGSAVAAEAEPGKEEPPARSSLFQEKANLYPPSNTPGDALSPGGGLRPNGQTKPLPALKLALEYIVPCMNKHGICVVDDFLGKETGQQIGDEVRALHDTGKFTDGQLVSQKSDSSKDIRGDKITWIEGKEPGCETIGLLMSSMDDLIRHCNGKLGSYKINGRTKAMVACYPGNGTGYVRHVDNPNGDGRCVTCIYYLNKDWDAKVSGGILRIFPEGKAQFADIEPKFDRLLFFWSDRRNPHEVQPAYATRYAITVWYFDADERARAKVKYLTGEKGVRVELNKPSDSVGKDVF

For `N#Cc1ccc(CNC(=O)c2ncc3nc(N4CC(N)C4)ccc3c2O)cn1` [Example 132], the IC50 was less than 5 nM.
